Test results from US8486990B2, “SirT inhibitors that bind to NAD” (Elixir Pharmaceuticals, Inc., priority 2003, dated 2013).
“Also recorded” adds a separate entry of the source.

What was measured:
Assay type in all cases: cell-based
[1] = system: NCI-H460 cells; experiment: cell survival after DNA damage with etoposide; settings: NCI-H460, varying concentrations of etoposide
Description: NCI-H460 cells were damaged with varying concentrations of etoposide in the presence or absence of SIRT1 inhibitors.

[2] = system: acetylated p53 (at lysine 382) in NCI-H460 cells; experiment: p53 acetylation (lysine 382) in etoposide-treated NCI-H460 cells, Western blot; settings: for acetylation of p53 (lysine 382) by enantiomers: 6 hours, 20 micromolar etoposide, immunoprecipitation of p53
[3] = system: NCI-H460 cells; experiment: thymidine incorporation with etoposide and compound (cytostar plates); settings: NCI-H460, 1 micromolar compound, added concurrent to, prior to, and after etoposide
Experimental: Thymidine incorporation was measured at 24 hours intervals.

[4] = system: p27 in HEK293 cells; experiment: p27 protein immunoblot in serum starved HEK293 cells; settings: HEK293, serum starved 24 hrs
[5] = system: HeLa cell; experiment: HeLa apoptosis assay (Cell Death Detection ELISA plus kit)
Experimental: The following exemplary compounds were evaluated for their effect on a HeLa cell apoptosis assay using the Cell Death Detection ELISA plus kit from Roche Applied Science.

[6] = system: acetylated lysine 382 of p53 in U20S cells; experiment: p53 acetylation (lysine 382) in etoposide-treated U20S cells; settings: 20 micromolar etoposide, 6 hours
[7] = system: acetylated lysine 382 of p53 in MCF7 cells; experiment: p53 acetylation (lysine 382) in etoposide-treated MCF7 cells; settings: MCF7, 20 micromolar etoposide, 6 hours
[8] = target: T1, GFP-hSIRT2 isoform 1 (Homo sapiens, UniProt Q8IXJ6); experiment: acetylated tubulin staining in HeLa cells transfected with GFP-hSIRT2; settings: 1 μM TSA, 50 μM compound
T1 sequence (Q8IXJ6 1-389): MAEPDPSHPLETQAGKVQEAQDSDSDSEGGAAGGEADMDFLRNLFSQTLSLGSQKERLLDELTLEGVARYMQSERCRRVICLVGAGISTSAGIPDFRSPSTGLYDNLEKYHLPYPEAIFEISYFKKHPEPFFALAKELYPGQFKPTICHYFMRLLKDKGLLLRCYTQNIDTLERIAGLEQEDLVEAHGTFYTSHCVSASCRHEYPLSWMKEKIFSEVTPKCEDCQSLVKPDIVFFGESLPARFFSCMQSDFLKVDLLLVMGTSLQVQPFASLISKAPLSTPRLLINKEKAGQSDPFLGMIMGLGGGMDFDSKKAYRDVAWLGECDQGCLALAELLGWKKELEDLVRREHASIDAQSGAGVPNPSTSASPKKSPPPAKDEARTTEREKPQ
Description: HeLa cells were transfected with GFP-hSIRT2 isoform 1 (green). […] The next morning cells were fixed, permeabilized, and stained for acetylated tubulin (red).

[9] = target: T2, yeast sir2 (Saccharomyces cerevisiae, UniProt P06700); experiment: yeast silencing assay (strain SL8c, URA at the telomere, 5FOA growth); settings: SD+0.1% 5FOA, 30° C., 18-24 hrs
T2 construct: endogenous in cells; host or cells: yeast strain SL8c (URA at the telomere)
Experimental: Strain SL8c (URA at the telomere) was used for yeast based assay to screen compounds. Cells were grown in -URA media to select de-silenced cells. The next day cells were diluted 1:20 into fresh YPD with 2% glucose then grow for 5 hrs. Cells were then diluted OD=0.01 in both SD and SD+0.1% 5FOA media. The compounds were then serially diluted into 10 ul of SD or SD+0.1% 5FOA medium. 140 ul of cells were pipetted into a 96 well plate and grown at 30° C. for 18-24 hrs.

T2 sequence (P06700 whole entry): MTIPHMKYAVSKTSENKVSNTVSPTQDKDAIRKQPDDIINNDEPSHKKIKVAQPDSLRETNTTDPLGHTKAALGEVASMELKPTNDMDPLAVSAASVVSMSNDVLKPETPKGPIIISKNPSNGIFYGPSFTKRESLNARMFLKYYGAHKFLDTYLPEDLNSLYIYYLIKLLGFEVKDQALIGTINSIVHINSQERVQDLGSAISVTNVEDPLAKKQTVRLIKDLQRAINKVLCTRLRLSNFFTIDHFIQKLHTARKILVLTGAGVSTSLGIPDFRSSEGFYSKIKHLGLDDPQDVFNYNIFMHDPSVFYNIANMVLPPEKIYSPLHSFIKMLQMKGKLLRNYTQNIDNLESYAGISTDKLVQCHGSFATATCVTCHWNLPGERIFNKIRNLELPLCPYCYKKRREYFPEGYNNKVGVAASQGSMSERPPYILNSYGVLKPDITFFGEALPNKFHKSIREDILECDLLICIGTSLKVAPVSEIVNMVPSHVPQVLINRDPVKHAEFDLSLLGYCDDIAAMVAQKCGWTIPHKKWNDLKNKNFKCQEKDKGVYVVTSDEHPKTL

NC(=O)C1CCCc2c1[nH]c1ccc(Cl)cc21 (centres unmarked) [Compound 8, 6-Chloro-2,3,4,9-tetrahydro-1H-carbazole-1-carboxylic acid amide]
p53 function measured as cell survival after DNA damage [1]: did not modulate p53 function significantly
p53 acetylation (at lysine 382) after etoposide treatment ([2]; 20 uM etoposide, 1 uM and 10 uM equally effective, relative to DMSO): increase p53 acetylation significantly relative to DMSO alone
synergy with etoposide on growth characteristics (thymidine incorporation) [3]: no synergy between etoposide and compound 8
serum starvation-mediated upregulation of p27 [4]: abrogation of serum starvation-mediated upregulation of the cell cycle inhibitor p27
average (HeLa apoptosis, Cell Death Detection ELISA) ([5]; dose 0.5 (unit not given)): 1.23
average (HeLa apoptosis, Cell Death Detection ELISA) ([5]; dose 2.5 (unit not given)): 1.85
average (HeLa apoptosis, Cell Death Detection ELISA) ([5]; dose 10 (unit not given)): 2.11
average (HeLa apoptosis, Cell Death Detection ELISA) ([5]; dose 25 (unit not given)): 2.27
inhibition of SIRT1 / P53 acetylation [6]: competent to inhibit SIRT1 in a variety of cell lines with similar effects on P53 acetylation
inhibition of SIRT1 / P53 acetylation [7]: competent to inhibit SIRT1 in a variety of cell lines with similar effects on P53 acetylation
tubulin acetylation in cells expressing SIRT2 [8]: the tubulin is more highly acetylated indicating that the effect of SIRT2 was blocked

Oc1ccc(/C=C/c2cc(O)cc(O)c2)cc1 [Resveratol, reference compound]
average (HeLa apoptosis, Cell Death Detection ELISA) ([5]; dose 0.5 (unit not given)): 0.83
average (HeLa apoptosis, Cell Death Detection ELISA) ([5]; dose 2.5 (unit not given)): 0.84
average (HeLa apoptosis, Cell Death Detection ELISA) ([5]; dose 10 (unit not given)): 1.01
average (HeLa apoptosis, Cell Death Detection ELISA) ([5]; dose 25 (unit not given)): 0.56

NC(=O)C1CCCc2c1[nH]c1ccccc21 (centres unmarked) [Compound 5, 2,3,4,9-Tetrahydro-1H-carbazole-1-carboxylic acid amide]
average (HeLa apoptosis, Cell Death Detection ELISA) ([5]; dose 0.5 (unit not given)): 1.00
average (HeLa apoptosis, Cell Death Detection ELISA) ([5]; dose 2.5 (unit not given)): 0.97
average (HeLa apoptosis, Cell Death Detection ELISA) ([5]; dose 10 (unit not given)): 1.07
average (HeLa apoptosis, Cell Death Detection ELISA) ([5]; dose 25 (unit not given)): 0.91

NC(=O)C1CCCc2c1[nH]c1ccc(Cl)cc21 (single isomer, unassigned) [8(−), 6-Chloro-2,3,4,9-tetrahydro-1H-carbazole-1-carboxylic acid amide]
acetylation of p53 (lysine 382) by enantiomers [2]: significant increase in acetylation and stabilization of p53 protein
effect on yeast cell growth / silencing [9]: preferentially inhibits yeast sir2 relative to enantiomer 8(+); also recorded: inhibits SIRT1 and allows for expression of URA3 which blocks growth in the presence of 5-fluorouracil

NC(=O)C1CCCc2c1[nH]c1ccc(Cl)cc21 (single isomer, unassigned) [8(+), 6-Chloro-2,3,4,9-tetrahydro-1H-carbazole-1-carboxylic acid amide]
acetylation of p53 (lysine 382) by enantiomers [2]: does not lead to increased acetylation of p53
effect on yeast cell growth / silencing [9]: no effect on cell growth
